Test results published in US12533428B2, “Multimodal fluorine-CY3/5/7-DOTA-hapten compositions, diagnostics, fluorescence guided surgery and radioimmunotherapy” (Memorial Sloan Kettering Cancer Center, priority 2019, dated 2026).

How the values were obtained:
[1] = tested on: GPA33-expressing human colorectal cancer SW1222 subcutaneous xenograft; experiment: Ex vivo biodistribution of anti-GPA33 pretargeted [^18F]CyD; assay type: in vivo, Athymic nude mice; conditions: 2 h p.i.
Method: (§1) In vivo pretargeting of [^18F]CyD for PET imaging of human colorectal cancer xenograft (SW1222 human carcinoma cell line). Athymic nude mice bearing the GPA33-expressing human colorectal cancer SW1222 subcutaneous xenograft were used as a model for anti-GPA33 DOTA-PRIT. The groups were intravenously (i.v.) injected with BsAb huA33-C825 (250 μg, 1.19 nmol), followed 24 h later with i.v. injection of dendron CA ([…], 2.76 nmol; (glycodendrimer-based CA α-thio-N-acetylgalactosamine-16-DOTA-Y^3; see WO2020014386)) and after an additional 4 h, i.v. injection of [^18F]CyD (1.295 MBq (35 μCi), 0.23 nmol). Non-invasive PET/CT imaging was performed using a preclinical Inveon PET/CT system at ˜1 h post-injection (p.i.) of [^18F]CyD (see FIG. 23), followed with ex vivo biodistribution assay of radioactivity.

[2] = tested on: GPA33-expressing human colorectal cancer SW1222 subcutaneous xenograft; experiment: PET/CT imaging of pretargeted [^18F]CyD; assay type: in vivo, Athymic nude mice; conditions: approximately 1 h after i.v. injection (1.295 MBq, 0.23 nmol), pretargeted tumor-bearing mice
Method: as §1

Bone uptake ([1]; SW1222-tumor bearing mice): 1.65±0.48 % ID/g | Large intestine uptake ([1]; SW1222-tumor bearing mice): 8.41±2.62 % ID/g | Blood uptake ([1]; n=3, SW1222-tumor bearing mice): 0.17±0.12 % ID/g | Kidney uptake ([1]; n=3, SW1222-tumor bearing mice): 0.87±0.11 % ID/g | Tumor Uptake ([1]; n=3, SW1222-tumor bearing mice): 5.14±1.24 % ID/g | T:NT for blood ([1]; tumor to blood): 31±13 | T:NT for kidney ([1]; tumor to kidney): 6±1
Compound: CC1(C)C(=C/C=C/C2=[N+](CCCCCC(=O)NCC[N+](C)(C)C[B-](F)(F)[18F])c3ccc(S(=O)(=O)[O-])cc3C2(C)C)N(CCCCCC(=O)Nc2ccc(CC3CN(CC(=O)[O-])CCN(CC(=O)[O-])CCN(CC(=O)[O-])CCN3CC(=O)[O-])cc2)c2ccc(S(=O)(=O)[O-])cc21.[175Lu+3] (centres unmarked) [[^18F]CyD]
Activity in the tumor by PET/CT [2]: high activity is present in the tumor
